Assay [1] addresses T1, Acetylcholinesterase (Homo sapiens, UniProt P22303). Briefly: Inhibitory activity against Acetylcholinesterase.
Assay [2] deals with T1, Acetylcholinesterase. Briefly: Inhibitory activity against Acetylcholinesterase; no inhibition at 100 uM.
Assay [3] addresses T2, Sterol O-acyltransferase 1 (Homo sapiens, UniProt P35610).
T2 sequence (P35610 whole entry): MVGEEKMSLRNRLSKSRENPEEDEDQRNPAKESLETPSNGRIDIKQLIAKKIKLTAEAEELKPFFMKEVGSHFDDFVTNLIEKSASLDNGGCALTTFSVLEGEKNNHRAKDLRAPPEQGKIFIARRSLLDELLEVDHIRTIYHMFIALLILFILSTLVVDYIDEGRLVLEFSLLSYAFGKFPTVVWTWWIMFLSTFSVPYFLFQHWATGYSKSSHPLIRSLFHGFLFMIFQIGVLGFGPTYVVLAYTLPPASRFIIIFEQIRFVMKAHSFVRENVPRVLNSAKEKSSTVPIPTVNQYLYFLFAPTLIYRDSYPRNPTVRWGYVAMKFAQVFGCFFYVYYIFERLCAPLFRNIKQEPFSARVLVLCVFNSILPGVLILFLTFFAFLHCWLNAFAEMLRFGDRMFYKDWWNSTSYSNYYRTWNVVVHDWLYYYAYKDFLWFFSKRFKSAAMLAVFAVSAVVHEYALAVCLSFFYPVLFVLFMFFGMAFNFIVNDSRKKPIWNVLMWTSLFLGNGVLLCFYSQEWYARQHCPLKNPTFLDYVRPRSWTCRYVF
Briefly: Inhibitory activity against acyl-CoA:cholesterol acyltransferase (ACAT).

Assay [4] deals with T2, Sterol O-acyltransferase 1. As to the kind of experiment: Inhibitory activity against acyl-CoA:cholesterol acyltransferase (ACAT); no inhibition >1000.

Each structure is given as a SMILES string.

T1 sequence (P22303 whole entry): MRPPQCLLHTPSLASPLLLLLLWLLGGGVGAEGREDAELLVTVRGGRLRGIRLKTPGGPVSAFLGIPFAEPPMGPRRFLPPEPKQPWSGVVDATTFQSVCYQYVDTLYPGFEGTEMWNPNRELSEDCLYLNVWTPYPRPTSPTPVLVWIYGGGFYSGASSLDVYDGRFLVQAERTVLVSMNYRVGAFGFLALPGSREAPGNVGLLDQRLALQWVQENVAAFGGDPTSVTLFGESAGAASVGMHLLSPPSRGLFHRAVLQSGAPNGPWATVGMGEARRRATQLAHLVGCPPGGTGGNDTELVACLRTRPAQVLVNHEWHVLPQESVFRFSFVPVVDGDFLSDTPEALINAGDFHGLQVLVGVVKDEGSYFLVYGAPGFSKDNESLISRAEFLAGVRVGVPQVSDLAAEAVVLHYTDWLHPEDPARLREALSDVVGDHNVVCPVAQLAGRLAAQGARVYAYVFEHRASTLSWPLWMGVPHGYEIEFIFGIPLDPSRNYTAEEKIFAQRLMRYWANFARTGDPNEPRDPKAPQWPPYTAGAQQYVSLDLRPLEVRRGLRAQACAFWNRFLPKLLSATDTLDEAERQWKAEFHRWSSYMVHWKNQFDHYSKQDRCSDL

Take `C[C@]12CC[C@H](O)[C@@](C)(CO)C1C[C@H](O)[C@@]1(C)Oc3cc(-c4ccc(Cl)nc4)oc(=O)c3C(=O)C21` (stereo partly specified): half-maximal inhibition at Acetylcholinesterase [1] (IC50) required 80 µM.
Same read-out and setting: the result for `COc1cccc(-c2cc3c(c(=O)o2)C(=O)C2[C@@]4(C)CC[C@H](O)[C@@](C)(CO)C4C[C@H](O)[C@@]2(C)O3)c1` (stereo partly specified) reads greater than 93 µM.
With `CC(=O)OC[C@@]1(C)C2C[C@H](OC(C)=O)[C@@]3(C)Oc4cc(-c5cccnc5)oc(=O)c4[C@H](O)C3[C@@]2(C)CC[C@@H]1OC(C)=O` (stereo partly specified), at Acetylcholinesterase [2], the IC50 entry was “No inhibition”.
As for `COc1ccc(-c2cc3c(c(=O)o2)C[C@]2(O)[C@@]4(C)C(=O)C=CC(C)(C)[C@]4(O)CC[C@@]2(C)O3)cc1OC`, the IC50 is 0.001 µM at Acetylcholinesterase [1] and greater than 50 µM in assay [3].
With `C[C@]12CC[C@H](O)[C@@](C)(CO)C1C[C@H](O)[C@@]1(C)Oc3cc(-c4ccncc4)oc(=O)c3C(=O)C21` (stereo partly specified), the results for the IC50 (at Acetylcholinesterase [1]; in assay [4]) were 7.9 µM and “No inhibition”, respectively.
As for `C[C@]12CC[C@H](O)[C@@](C)(CO)C1C[C@H](O)[C@@]1(C)Oc3cc(-c4ccccc4)oc(=O)c3C(=O)C21` (stereo partly specified), half-maximal inhibition against Acetylcholinesterase [1] (IC50) required 99 µM.
For `COc1cc(-c2cc3c(c(=O)o2)C[C@]2(O)[C@@]4(C)C(=O)C=CC(C)(C)[C@]4(O)CC[C@@]2(C)O3)cc(OC)c1OC` [TERRITREM B], the IC50 on Acetylcholinesterase [1] is 0.008 µM; in assay [3] it was greater than 50 µM.
Compound `C[C@]12CC[C@H](O)[C@@](C)(CO)C1C[C@H](O)[C@@]1(C)Oc3cc(-c4cccnc4)oc(=O)c3C(=O)C21` (stereo partly specified) had an IC50 at Acetylcholinesterase [1] of 35 µM.
The compound `C[C@]12CC[C@H](O)[C@@](C)(CO)C1C[C@H](O)[C@@]1(C)Oc3cc(-c4ccccn4)oc(=O)c3C(=O)C21` (stereo partly specified) returned an IC50 at Acetylcholinesterase [1] of 101 µM.
Regarding `COc1ccc(-c2cc3c(c(=O)o2)C(=O)C2[C@@]4(C)CC[C@H](O)[C@@](C)(CO)C4C[C@H](O)[C@@]2(C)O3)cc1` (stereo partly specified), the IC50 at Acetylcholinesterase [1] is 70 µM; in assay [4], “Not Active”.
`COc1ccc(-c2cc3c(c(=O)o2)C[C@]2(O)[C@@]4(C)C(=O)C=CC(C)(C)[C@]4(O)CC[C@@]2(C)O3)cc1` showed an IC50 against Acetylcholinesterase [1] of 0.026 µM.
Same read-out and setting: the value for `COc1ccc(-c2cc3c(c(=O)o2)C(=O)C2[C@@]4(C)CC[C@H](O)[C@@](C)(CO)C4C[C@H](O)[C@@]2(C)O3)cc1OC` (stereo partly specified) was 58 µM.

What is called IC50 is the point on the concentration scale where inhibition reaches its midpoint.

Values taken from ChEMBL document CHEMBL1133041, “Synthetic conversion of ACAT inhibitor to acetylcholinesterase inhibitor” (Bioorg Med Chem Lett, 2000).
